US20140235840A1, “NEW SYNTHESIS OF FUCOSE” (GLYCOM A/S, priority 2011, published 2014)

Assays:
[1] = Partition studies between organic solvent and water; type: physicochemical; settings: for Number of volumes of organic solvent: to reach at least 95% of recovery using one volume of organic solvent each time relative to one volume of aqueous solution; for solubility in organic solvents: as compared to aqueous solvents; for amount of compound from aqueous phase / amount of compound from organic phase: 197 mg (cyclohexylidene) or 150 mg (isopropylidene) partitioned
Method: 1,2-O-Cyclohexylidene-6-deoxy-β-L-talofuranose (197 mg) was partitioned between water (10 mL) and methylene chloride (10 mL), layers separated and the residual amount of solutions in the separatory funnel were partitioned with extra amount of water (5 mL) and methylene chloride (5 mL). The combined organic phases were evaporated and dried in vacuo (50° C., <1 mbar, 1 hour) to give 140 mg of the title compound. The aqueous solution gave 53 mg after lyophilisation and drying in vacuo (50° C., <1 mbar, 2 hrs). Using the same procedure, partition between ethyl acetate and water provided 127 mg of the title compound from ethyl acetate phase and 70 mg from the aqueous phase.
Analogously, 1,2-O-isopropylidene-6-deoxy-β-L-talofuranose (150 mg) was partitioned between methylene chloride (24 mg) and aqueous phase (126 mg). Partition between ethyl acetate and water furnished 7 mg and 143 mg of the title compound, respectively.

[2] = shake-flask partition; gravimetric recovery from each phase; settings: not told
[3] = conclusion in words from partition results
[4] = solvent system ethyl acetate-water

| Structure (SMILES) | Number of volumes of organic solvent ([1]; CH2Cl2-water) | affinity to organic solvents versus aqueous media [1, 3] | solubility in organic solvents [1, 3] | amount of compound from aqueous phase ([1]; ethyl acetate-water) [mg] | amount of compound from organic phase ([1]; ethyl acetate-water) [mg] | Number of volumes of organic solvent ([1]; ethyl acetate-water) | amount of compound from aqueous phase ([1]; methylene chloride-water) [mg] | amount of compound from organic phase ([1]; methylene chloride-water) [mg] | Partition P (=[C]org/[C]aq) ([1]; solvent system CH2Cl2-water) | logP ([1]; solvent system CH2Cl2-water) | Partition P (=[C]org/[C]aq) [1, 4] | logP [1, 4] | solubility in aqueous solutions [1, 3] | log partition ethyl acetate / water [2] | log partition methylene chloride (CH2Cl2) / water [2] |
| --- | --- | --- | --- | --- | --- | --- | --- | --- | --- | --- | --- | --- | --- | --- | --- |
| C[C@H](O)[C@H]1O[C@@H]2OC3(CCCCC3)O[C@@H]2[C@@H]1O [1,2-O-Cyclohexylidene-6-deoxy-β-L-talofuranose] | 3 | higher affinity to organic solvents as compared to aqueous media | much higher solubility | 70 | 127 | 3 | 53 | 140 | 2.64 | 0.42 | 1.81 | 0.26 |  |  |  |
| C[C@H](O)[C@H]1O[C@@H]2OC(C)(C)O[C@@H]2[C@@H]1O [1,2-O-isopropylidene-6-deoxy-β-L-talofuranose] | 18 | higher affinity to aqueous medium | almost insoluble | 143 | 7 | 21 | 126 | 24 | 0.19 |  | 0.16 |  | highly soluble | 0.16 concentration ratio (mass-based) | 0.19 concentration ratio (mass-based) |
